Active and inactive are the calls of the source. No cut-off for these calls is given here.
How the values were obtained:
3T3-L1 = experiment: Inhibition of cell proliferation of mouse 3T3L1 cells at 100 uM incubated for 48 hrs by MTT assay; format: functional, cell-based
[1] = target: T1, Cholesteryl ester transfer protein (Oryctolagus cuniculus) (UniProt P22687); experiment: Inhibition of CETP in rabbit serum at 100 uM incubated for 1 hr using NBD-labeled cholesterol in HDL and LDL by fluorescence based assay
T1 sequence (whole entry): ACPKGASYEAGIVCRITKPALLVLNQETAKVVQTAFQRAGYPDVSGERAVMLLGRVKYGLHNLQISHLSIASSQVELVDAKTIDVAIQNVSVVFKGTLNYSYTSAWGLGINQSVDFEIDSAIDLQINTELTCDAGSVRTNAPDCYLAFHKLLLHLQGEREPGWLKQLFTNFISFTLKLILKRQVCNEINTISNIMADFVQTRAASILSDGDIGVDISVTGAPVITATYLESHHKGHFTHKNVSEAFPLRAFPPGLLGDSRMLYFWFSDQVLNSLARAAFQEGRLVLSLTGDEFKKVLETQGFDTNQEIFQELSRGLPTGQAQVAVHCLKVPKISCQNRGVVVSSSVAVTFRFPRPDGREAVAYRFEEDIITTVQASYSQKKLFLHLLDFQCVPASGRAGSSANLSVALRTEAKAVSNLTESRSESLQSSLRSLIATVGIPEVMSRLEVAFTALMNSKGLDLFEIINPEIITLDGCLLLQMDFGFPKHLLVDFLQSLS

Syrian golden hamster [2] = experiment: Antihyperlipidemic activity in Syrian golden hamster model of high lipid diet-induced dyslipidemia model assessed as increase in HDL-C at 50 mg/kg/day, po for 28 days; format: functional, Mesocricetus auratus
[3] = target: T2, Cholesteryl ester transfer protein (Oryctolagus cuniculus, UniProt P22687); experiment: Inhibition of CETP in rabbit serum incubated for 1 hr using NBD-labeled cholesterol in HDL and LDL by fluorescence based assay
T2 sequence (P22687 whole entry): T1 sequence (whole entry)

HepG2 = experiment: Toxicity against human HepG2 cells assessed as inhibition of cell proliferation at 100 uM incubated for 48 hrs by MTT assay; format: cell-based; conditions: hepg2, 48 h
Syrian golden hamster [4] = experiment: Antihyperlipidemic activity in Syrian golden hamster model of high lipid diet-induced dyslipidemia model assessed as reduction in LDL-C at 50 mg/kg/day, po for 28 days; format: functional, Mesocricetus auratus; parameters: scale not given: the % may be the effect or the level left

SMILES	inhibition (3T3-L1)	inhibition [1]	Activity (Syrian golden hamster [2]) [%]	IC50 [3] [µM]	Activity (HepG2)	Activity (Syrian golden hamster [4]) [%]
COc1ccccc1OCC(=O)Nc1ccc(-c2coc3cc(OC(C)=O)ccc3c2=O)cc1	Active	inactive	–	–	–	–
CC(=O)Oc1ccc2c(=O)c(-c3ccc(NC(=O)COc4cccc(C)c4)cc3)coc2c1	Active	inactive	–	–	–	–
O=C(COc1ccccc1)Nc1ccc(-c2coc3cc(O)ccc3c2=O)cc1	inactive	Active	–	–	–	–
Cc1cccc(OCC(=O)Nc2ccc(-c3coc4cc(O)ccc4c3=O)cc2)c1	inactive	Active	–	–	–	–
CC(=O)Oc1ccc2c(=O)c(-c3ccc(NC(=O)COc4ccc(C)cc4)cc3)coc2c1	Active	inactive	–	–	–	–
Cc1ccc(OCC(=O)Nc2ccc(-c3coc4cc(O)ccc4c3=O)cc2)cc1	inactive	Active	–	–	–	–
CC(=O)Oc1ccc2c(=O)c(-c3ccc(NC(=O)COc4cccc5ccccc45)cc3)coc2c1	Active	Active	–	–	–	–
Cc1ccccc1OCC(=O)Nc1ccc(-c2coc3cc(O)ccc3c2=O)cc1	inactive	Active	–	–	–	–
CC(=O)Oc1ccc2c(=O)c(-c3ccc(NC(=O)COc4ccccc4)cc3)coc2c1	Active	Active	66	1.52	Non-toxic	44.6
COc1ccccc1OCC(=O)Nc1ccc(-c2coc3cc(O)ccc3c2=O)cc1	inactive	inactive	–	–	–	–
O=C(COc1cccc2ccccc12)Nc1ccc(-c2coc3cc(O)ccc3c2=O)cc1	inactive	Active	–	–	–	–
CC(=O)Oc1ccc2c(=O)c(-c3ccc(NC(=O)COc4ccccc4C)cc3)coc2c1	Active	Active	–	8.42	–	–
COc1cc(F)c(C(C)C)cc1-c1ccc(C(F)(F)F)cc1CN1C(=O)O[C@H](c2cc(C(F)(F)F)cc(C(F)(F)F)c2)[C@@H]1C	–	Active	–	–	–	–
CCCCCCCC/C=C\CCCCCCCC(=O)Oc1ccc2c(=O)c(-c3ccc(OC)cc3)coc2c1	Active	–	–	–	–	–
